Experimental data as given in patent US20050208496A1, “Methods of testing for bronchial asthma or chronic obstructive pulmonary disease” (Genox Research, Inc., priority 2002, published 2005).

Tested on: pendrin gene
Test: Quantitative PCR (ABI 7700) of the pendrin gene in epithelial cells cultured by the AI or IMM method
Format: cell-based, human
Details: respiratory tract epithelial cells
Text: Quantitative PCR assays were further performed with ABI 7700 using two batches of epithelial cells cultured respectively by the AI method and the IMM method described in Example 1 to quantitatively determine the expression level of the pendrin gene selected in Example 5. The primers and TaqMan probe used in the assays with ABI 7700 were designed based on the information on the sequence of the pendrin gene utilizing Primer Express (PE Biosystems). The 5′ and 3′ ends of the TaqMan probe were labeled with FAM (6-carboxy-fluorescein) and TAMRA (6-carboxy-N,N,N′,N′-tetramethylrhodamine), respectively. The sequences of oligonucleotides of the forward primer (F), reverse primer (R), and TaqMan probe (TP) for the pendrin gene are shown below. The GenBank accession number corresponding to the nucleotide sequence of each marker gene is shown in parenthesis after the name.
Total RNA extracted by the aforementioned method was treated with DNase (Nippon Gene). […]
Additionally, to correct the differences of cDNA concentration in the sample, a similar quantitative analysis was performed for β-actin gene and glyceraldehyde-3-phosphate dehydrogenase (GAPDH) gene as internal standards for correction. By correcting based on the number of copies of these genes, the number of copies of the genes of interest was calculated. […]

With “IL-13: human IL-13 (Peprotech, Inc.) added to the medium at 50 ng/mL to stimulate respiratory epithelial cells” the “pendrin gene expression level, elevation as a result of IL-13 stimulation (quantitative PCR)” value was “hundred folds or more”.
